Experimental data reported in patent US20170321283A1, “METHODS OF DIAGNOSING CANCER AND OF PREDICTING RESPONSE OF CANCER TO DENDROGENIN A TREATMENT” (INSERM (INSTITUT NATIONAL DE LA SANTÉ ET DE LA RECHERCHE …, priority 2014, published 2017).
“Also recorded” adds a separate entry of the source.

Assays:
hGSTA1 [1] = target: T1, hGSTA1 (Homo sapiens, UniProt P08263); test: CDO-SG biosynthesis by hGSTA1 (glutathionylation of 5,6α-EC); format: biochemical; details: for Inhibition of CDO-SG biosynthesis: 1 and 10 mM CDNB, 1 and 10 μM HA, 1 μM 5,6β-EC, 10 μM CT, OCDO, 27-HC or 22(R)-HC (FIG. 2g-h)
T1 construct: purchased Novus NBP1-30307
T1 sequence (P08263 1-222): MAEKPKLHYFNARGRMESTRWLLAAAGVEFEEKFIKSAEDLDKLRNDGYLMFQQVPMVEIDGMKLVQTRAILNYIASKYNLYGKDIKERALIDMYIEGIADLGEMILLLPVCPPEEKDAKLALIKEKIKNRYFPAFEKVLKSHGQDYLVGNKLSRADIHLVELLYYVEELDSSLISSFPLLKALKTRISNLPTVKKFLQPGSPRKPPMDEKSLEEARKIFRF
Description: (§1) The mixture was incubated for 30 minutes at 30° C., and the reaction was stopped by addition of 200 μl MeOH. After centrifugation 10 min at 18,000 g (4° C.), the supernatant was evaporated to dryness using a speed vac concentrator (Savant SP01010, Thermo scientific) and the residue was resuspended in 20 μl MeOH. Samples were spotted on HPTLC NanoSilgur 10×10 cm plates (Macherey Nagel, ref 811042) and developed using ethyl acetate/butanol/acetic acid/water (6:2:3:2) for CDO-SG and CH2Cl/MeOH/NH4OH 84:15:1 for DDA. Standards were co-spotted with samples. […] The radioactivity was quantified by liquid scintillation counting of the ethanol extract of the silica scraped at the retention factor (Rf) corresponding to authentic 5,6α-EC, CDO-SG or DDA standards.

hGSTA1 [2] = target: T1, hGSTA1; test: Glutathionylation of CDNB by recombinant hGSTA1 (CDNB-SG biosynthesis); format: biochemical; details: for Inhibition of CDNB-SG biosynthesis: 1 and 10 μM 5,6α-EC or HA (FIG. 2c)
Description: The mixture was incubated for 30 min at 30° C. and the reaction was stopped with 200 μl MeOH. Measurements were carried out spectrophotometrically at 345 nm (Am=8.5 mM^−1·cm^−1). The negative control corresponds to the same test performed in absence of hGSTA1.

hGSTA1 [3] = target: T1, hGSTA1; test: DDA biosynthesis by hGSTA1 (histaminylation of 5,6α-EC, DDAS activity); format: biochemical; details: for Inhibition of DDA biosynthesis (DDAS): 10 mM CDNB, 1 μM 5,6β-EC or 10 μM CT, OCDO, 27-HC or 22(R)-HC (FIG. 3d-e)
Description: as §1

LXR = details: endogenous LXR ligand; cited from earlier work
[4] = substrate: NCCc1c[nH]cn1; test: purified protein, by the assay type; details: other: substrates 5,6α-EC + histamine, product DDA; pH 7.5; 30.0 °C
[5] = substrate: N[C@@H](CCC(=O)N[C@@H](CS)C(=O)NCC(=O)O)C(=O)O; test: purified protein, by the assay type; details: other: substrates 5,6α-EC + GSH, product CDO-SG; pH 7.5; 30.0 °C
[6] = substrates 5,6α-EC + GSH, product CDO-SG, Table 1
[7] = substrates 5,6α-EC + histamine, product DDA, Table 1

CC(C)CCC[C@@H](C)[C@H]1CC[C@H]2[C@@H]3C[C@@H](SC[C@H](NC(=O)CC[C@H](N)C(=O)O)C(=O)NCC(=O)O)[C@@]4(O)C[C@@H](O)CC[C@]4(C)[C@H]3CC[C@]12C [CDO-SG, 3β,5α-dihydroxycholestan-6β-yl-S-glutathione]
weaker capacity to produce CDO-SG than to produce CDNB-SG (hGSTA1 [1]; ratio of maximum velocities): 24.10^6 fold

CC(C)CCC[C@@H](C)[C@H]1CC[C@H]2[C@@H]3C[C@@H]4O[C@@]45C[C@@H](O)CC[C@]5(C)[C@H]3CC[C@]12C [5,6α-EC, 5,6α-epoxy-cholesterol]
Inhibition of CDNB-SG biosynthesis (hGSTA1 [2]): not inhibitors | Vm^5,6-EC (hGSTA1 [1]; 5,6-EC + GSH to CDO-SG): 1.33 pmol·min^−1·mg prot | higher affinity of hGSTA1 for 5,6-EC than for CDNB (hGSTA1 [1]; ratio of Km): 73 fold | Km (hGSTA1 [1]; substrates 5,6α-EC + GSH, product CDO-SG): 0.44 µM | Vm^5,6-EC (hGSTA1 [1]; [6]): 1.33 pmol · min^−1 · mg.pr | catalytic efficiency higher to transform 5,6α-EC compared to CDNB (hGSTA1 [3]): 60 fold | Vm^5,6EC (hGSTA1 [3]; 5,6-EC + HA to DDA): 0.81 pmol·min^−1·mg prot | Km (hGSTA1 [3]; substrates 5,6α-EC + histamine, product DDA): 0.28 µM | Vm^5,6-EC (hGSTA1 [3]; [7]): 0.81 pmol · min^−1 · mg.pr

CC(C)CCC[C@@H](C)[C@H]1CC[C@H]2[C@@H]3CC(=O)[C@@]4(O)C[C@@H](O)CC[C@]4(C)[C@H]3CC[C@]12C [OCDO]
Inhibition of CDO-SG biosynthesis (hGSTA1 [1]): potent inhibitors

N[C@@H](CCC(=O)N[C@@H](CS)C(=O)NCC(=O)O)C(=O)O [GSH, glutathione]
Vm^GSH (hGSTA1 [2]; CDNB + GSH to CDNB-SG): 8.12 μmol·min^−1·mg prot | Vm^GSH (hGSTA1 [1]; [6]): 1.50 pmol · min^−1 · mg · pr | IC50 (hGSTA1 [3]; read-out: IC50, inhibition of the biosynthesis of DDA): 52 µM

O=[N+]([O-])c1ccc(Cl)c([N+](=O)[O-])c1 [CDNB, 1-chloro-2,4-dinitrobenzene]
Vm^CDNB (hGSTA1 [2]; CDNB + GSH to CDNB-SG): 274 μmol·min^−1·mg prot | Km (hGSTA1 [2]; read-out: Km^CDNB, substrates CDNB + GSH, product CDNB-S-G): 32.2 µM | Vm^CDNB (hGSTA1 [2]; substrates CDNB + GSH, product CDNB-S-G, Table 1): 274 µmol/min/mg | Inhibition of CDO-SG biosynthesis (hGSTA1 [1]): did not inhibit | Inhibition of DDA biosynthesis (DDAS) (hGSTA1 [3]): did not inhibit

CC(C)CCC[C@@H](C)[C@H]1CC[C@H]2[C@@H]3C[C@H]4O[C@]45C[C@@H](O)CC[C@]5(C)[C@H]3CC[C@]12C [5,6β-EC, 5,6β-epoxy-cholesterol]
Inhibition of CDO-SG biosynthesis (hGSTA1 [1]): potent inhibitors | Inhibition of DDA biosynthesis (DDAS) (hGSTA1 [3]): most potent inhibitor; also recorded: potent inhibitor

CC(C)CCCC(C)[C@H]1CCC2C3C[C@@H](NCCc4cnc[nH]4)[C@@]4(O)C[C@@H](O)CC[C@]4(C)C3CC[C@@]21C (some centres unmarked) [DDA, 5-hydroxy-6-[2-(1H-imidazol-4-yl)ethylamino]cholestan-3-ol]
affinity for LXR (LXR): sub-μM

CC(C)CCC[C@@H](C)[C@H]1CC[C@H]2[C@@H]3C[C@@H](O)[C@@]4(O)C[C@@H](O)CC[C@]4(C)[C@H]3CC[C@]12C [CT]
Inhibition of CDO-SG biosynthesis (hGSTA1 [1]): potent inhibitors

NCCc1c[nH]cn1 [HA, histamine]
Inhibition of CDNB-SG biosynthesis (hGSTA1 [2]): not inhibitors | Inhibition of CDO-SG biosynthesis (hGSTA1 [1]): potent inhibitor | catalytic efficiency higher to transform HA compared to GSH (hGSTA1 [3]): 60 fold | weaker Km for HA than for GSH (hGSTA1 [3]; DDA biosynthesis versus CDO-SG biosynthesis): 135 fold | Vm^His (hGSTA1 [3]; [7]): 0.66 pmol · min^−1 · mg · pr

B1: hGSTA1 (Homo sapiens) (protein)
chain: MAEKPKLHYFNARGRMESTRWLLAAAGVEFEEKFIKSAEDLDKLRNDGYLMFQQVPMVEIDGMKLVQTRAILNYIASKYNLYGKDIKERALIDMYIEGIADLGEMILLLPVCPPEEKDAKLALIKEKIKNRYFPAFEKVLKSHGQDYLVGNKLSRADIHLVELLYYVEELDSSLISSFPLLKALKTRISNLPTVKKFLQPGSPRKPPMDEKSLEEARKIFRF
Km [4]: 0.35 µM | Vmax [4]: 0.66 pmol·min^−1·mg prot | Km [5]: 47 µM | Vmax [5]: 1.50 pmol·min^−1·mg prot
